Structures are written as SMILES.

As usually defined, the IC50 is the midpoint of a concentration-inhibition curve.

This experiment deals with T1, UGT8 (Homo sapiens, UniProt Q16880).
T1 construct: host or cells: OE19 cells
T1 sequence (Q16880 21-541): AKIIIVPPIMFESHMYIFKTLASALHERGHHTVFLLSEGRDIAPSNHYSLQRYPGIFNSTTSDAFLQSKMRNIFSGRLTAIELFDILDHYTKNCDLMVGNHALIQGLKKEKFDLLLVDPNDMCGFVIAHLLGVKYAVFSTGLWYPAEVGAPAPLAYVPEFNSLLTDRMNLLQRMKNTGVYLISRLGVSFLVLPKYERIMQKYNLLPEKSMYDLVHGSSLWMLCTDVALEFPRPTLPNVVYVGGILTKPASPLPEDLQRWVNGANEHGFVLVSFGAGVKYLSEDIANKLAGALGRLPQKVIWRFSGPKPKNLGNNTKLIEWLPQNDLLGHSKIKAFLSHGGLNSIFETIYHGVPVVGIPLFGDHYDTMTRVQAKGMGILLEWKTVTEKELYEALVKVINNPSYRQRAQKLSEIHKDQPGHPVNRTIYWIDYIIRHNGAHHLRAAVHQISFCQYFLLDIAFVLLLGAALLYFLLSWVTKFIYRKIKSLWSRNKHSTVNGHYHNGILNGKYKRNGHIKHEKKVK
As to the kind of experiment: In vitro sulfatide (SFT) synthesis inhibition in OE19 cells, LC-MS/MS readout. Format: cell-based. The following applies: 72 hr, sulfatide by LC-MS/MS, read-out: Potency range (IC50, In-vitro SFT). As for the experimental part: For medium throughput screening, library compounds were dispensed into CellBIND 384 well plates to a final concentration of 10 μM. OE19 cells (Sigma) were grown in to 70-90% confluency in RPMI 1640+L-glutamine and […]; were trypsinized to achieve suspension and were aliquoted at 2,500 cells/well, total well volume 50 μl. Plates were incubated 72 hr at 37° C. in 5% CO2; supernatant was removed and plates were dried, heat-sealed and stored at −20° C. until analysis.
For IC50 determinations, the same procedure was followed except that test compounds were added to the plate as dose-downs in triplicate to yield concentration response curves.
Mass Spectrometer Analysis of Sulfatide (SFT):
Assay plates were thawed and 85 μl mobile phase B (5 mM ammonium formate^+0.2% formic acid in 50:50 methanol:acetonitrile). Fifteen μl 20 ng/ml C17 SFT in mobile phase B was added as an internal standard.
SFT was analyzed using an Applied Biosystems API-4000 triple quad mass spectrometer interfaced to a Thermo Scientific Multiplex system (LX-4) equipped with four pumps. Chromatography of OE19 cell samples or 2B5-mouse cells treated with compounds was performed using a Waters Acquity UPLC BEH C8 2.1×50 mm column with 1.7 um particle size. The chromatography was performed using the following mobile phases. Mobile phase A (MPA): 0.2% formic acid and 5 mM ammonium formate in deionized water; MPB: see above. The LC method was run in isocratic mode for 4 sequentially running columns using 95% MPB and 5% MPA with flow rate of 1 ml/min and a column temperature of 60° C.
The Triple quad mass spectrometer was run in Negative Ionization mode monitoring the following MRM transitions and using the following parameters:
Electrospray voltage was […], and source temperature was 550° C.
Consider `CNC(=O)c1csc2c(C(F)(F)F)c(C)c(O[C@H]3C[C@@H](NC(=O)O[C@@H](C)C4CC4)C3)nc12` [Example 220, (S)-1-Cyclopropylethyl ((1S,3R)-3-((6-methyl-3-(methylcarbamoyl)-7 (trifluoromethyl)thieno[3,2-b]pyridin-5-yl)oxy)cyclobutyl)carbamate], for which the IC50 was less than 100 nM.
Then `CNC(=O)c1csc2c(C(F)(F)F)cc(OC3(C)CN(C(=O)OCCOC(F)(F)F)C3)nc12` [Example 254, 2-(Trifluoromethoxy)ethyl 3-methyl-3-((3-(methylcarbamoyl)-7-(trifluoromethyl)thieno[3,2-b]pyridin-5-yl)oxy)azetidine-1-carboxylate], with less than 100 nM.
Then `CNC(=O)c1csc2c(C(F)(F)F)cc(OC3CN(C(=O)OCCOC(F)(F)F)C3)nc12` [Example 256, 2-(Trifluoromethoxy)ethyl 3-((3-(methylcarbamoyl)-7-(trifluoromethyl)thieno[3,2-b]pyridin-5-yl)oxy)azetidine-1-carboxylate], with less than 100 nM; and `CNC(=O)c1csc2c(C(F)(F)F)cc(OC3(C)CN(C(=O)OC(C)(C)C)C3)nc12` [Example 269, tert-Butyl 3-methyl-3-((3-(methylcarbamoyl)-7-(trifluoromethyl)thieno[3,2-b]pyridin-5-yl)oxy)azetidine-1-carboxylate], with 100 to 1000 nM; and `COC(=O)c1csc2c(C(F)(F)F)cc(C3CCN(C(=O)OC(C)(C)C)CC3)nc12` [Example 274, Methyl 5-(1-(tert-butoxycarbonyl)piperidin-4-yl)-7-(trifluoromethyl)thieno[3,2-b]pyridine-3-carboxylate], with 100 to 1000 nM.
Consider `CNC(=O)c1csc2c(C(F)(F)F)cc(N3CCC(NC(=O)OCC(C)C)CC3)nc12` [Example 297, Isobutyl (1-(3-(methylcarbamoyl)-7-(trifluoromethyl)thieno[3,2-b]pyridin-5-yl)piperidin-4-yl) carbamate], for which the IC50 is less than 100 nM.
Then `CNC(=O)c1csc2c(C(F)(F)F)cc(N3CC(NC(=O)OC(C)(C)C)C3)nc12` [Example 300, tert-Butyl (1-(3-(methylcarbamoyl)-7-(trifluoromethyl)thieno[3,2-b]pyridin-5-yl)azetidin-3-yl)carbamate], with less than 100 nM; and `CNC(=O)c1csc2c(C(F)(F)F)cc(N3CC4(CN(C(=O)OC5COC5)C4)C3)nc12` [Example 339, Oxetan-3-yl 6-(3-(methylcarbamoyl)-7-(trifluoromethyl)thieno[3,2-b]pyridin-5-yl)-2,6-diazaspiro[3.3]heptane-2-carboxylate], with less than 100 nM; and `CNC(=O)c1csc2c(C(F)(F)F)cc(N3CC4(CN(C(=O)OC(C)CC#N)C4)C3)nc12` (stereo not drawn) [Example 350, 1-Cyanopropan-2-yl 6-(3-(methylcarbamoyl)-7-(trifluoromethyl)thieno[3,2-b]pyridin-5-yl)-2,6-diazaspiro[3.3]heptane-2-carboxylate], with less than 100 nM.
Then `CNC(=O)c1csc2c(C(F)(F)F)cc(N3CCC(OCCN4CCC(F)(F)C4)CC3)nc12` [Example 361, 5-(4-(2-(3,3-Difluoropyrrolidin-1-yl)ethoxy)piperidin-1-yl)-N-methyl-7-(trifluoromethyl)thieno[3,2-b]pyridine-3-carboxamide], with less than 100 nM.
Then `CNC(=O)c1csc2c(C(F)(F)F)cc(O[C@@H]3CCN(C(=O)OC(C)(C)C)[C@H](C)C3)nc12` [Example 373, tert-Butyl (2R,4R)-2-methyl-4-((3-(methylcarbamoyl)-7-(trifluoromethyl)thieno[3,2-b]pyridin-5-yl)oxy)piperidine-1-carboxylate], with less than 100 nM; and `CNC(=O)c1csc2c(C(F)(F)F)c(C)c(OC3CCN(C(=O)OC(C)(C)C)CC3)nc12` [Example 389, tert-Butyl 4-((6-methyl-3-(methylcarbamoyl)-7-(trifluoromethyl)thieno[3,2-b]pyridin-5-yl)oxy)piperidine-1-carboxylate], with less than 100 nM.
